Values belong to the compound of their own block, whether it stands above or below them. Active and inactive are the calls of the source.
Columns and labels:
HEK293 [1] = test: inhibition of NOD1-driven NF-kB reporter – cell-based, luminescence, uHTS, primary screen (AID 1578); format: functional; conditions: Homo sapiens
HEK293 [2] = test: cells; format: functional, cell-based; conditions: Homo sapiens
HEK293 [3] = test: cells; format: functional, cell-based; conditions: Homo sapiens; remark: listed apart in the source
HEK293 [4] = test: NOD2 signaling inhibitors in MDP-stimulated cells, cell-based, uHTS, luminescence (AID 2001); format: functional; conditions: Homo sapiens
[5] = target: T1, DNA repair protein RAD52 homolog (Homo sapiens, UniProt P43351); format: functional, biochemical
T1 sequence (P43351 whole entry): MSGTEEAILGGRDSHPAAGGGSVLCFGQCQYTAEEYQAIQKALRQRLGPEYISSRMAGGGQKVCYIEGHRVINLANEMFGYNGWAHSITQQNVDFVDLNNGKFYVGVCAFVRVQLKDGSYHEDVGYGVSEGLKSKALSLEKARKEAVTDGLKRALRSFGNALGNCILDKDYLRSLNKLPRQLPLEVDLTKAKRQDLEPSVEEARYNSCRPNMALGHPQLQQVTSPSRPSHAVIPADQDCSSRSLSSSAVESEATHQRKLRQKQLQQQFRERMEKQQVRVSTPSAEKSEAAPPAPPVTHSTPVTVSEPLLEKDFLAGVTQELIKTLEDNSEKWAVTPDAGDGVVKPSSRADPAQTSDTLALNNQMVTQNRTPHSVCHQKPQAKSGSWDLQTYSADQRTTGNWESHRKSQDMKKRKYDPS

[6] = target: T2, Histone-lysine N-methyltransferase NSD2 (Homo sapiens, UniProt O96028); format: biochemical
T2 sequence (O96028 whole entry): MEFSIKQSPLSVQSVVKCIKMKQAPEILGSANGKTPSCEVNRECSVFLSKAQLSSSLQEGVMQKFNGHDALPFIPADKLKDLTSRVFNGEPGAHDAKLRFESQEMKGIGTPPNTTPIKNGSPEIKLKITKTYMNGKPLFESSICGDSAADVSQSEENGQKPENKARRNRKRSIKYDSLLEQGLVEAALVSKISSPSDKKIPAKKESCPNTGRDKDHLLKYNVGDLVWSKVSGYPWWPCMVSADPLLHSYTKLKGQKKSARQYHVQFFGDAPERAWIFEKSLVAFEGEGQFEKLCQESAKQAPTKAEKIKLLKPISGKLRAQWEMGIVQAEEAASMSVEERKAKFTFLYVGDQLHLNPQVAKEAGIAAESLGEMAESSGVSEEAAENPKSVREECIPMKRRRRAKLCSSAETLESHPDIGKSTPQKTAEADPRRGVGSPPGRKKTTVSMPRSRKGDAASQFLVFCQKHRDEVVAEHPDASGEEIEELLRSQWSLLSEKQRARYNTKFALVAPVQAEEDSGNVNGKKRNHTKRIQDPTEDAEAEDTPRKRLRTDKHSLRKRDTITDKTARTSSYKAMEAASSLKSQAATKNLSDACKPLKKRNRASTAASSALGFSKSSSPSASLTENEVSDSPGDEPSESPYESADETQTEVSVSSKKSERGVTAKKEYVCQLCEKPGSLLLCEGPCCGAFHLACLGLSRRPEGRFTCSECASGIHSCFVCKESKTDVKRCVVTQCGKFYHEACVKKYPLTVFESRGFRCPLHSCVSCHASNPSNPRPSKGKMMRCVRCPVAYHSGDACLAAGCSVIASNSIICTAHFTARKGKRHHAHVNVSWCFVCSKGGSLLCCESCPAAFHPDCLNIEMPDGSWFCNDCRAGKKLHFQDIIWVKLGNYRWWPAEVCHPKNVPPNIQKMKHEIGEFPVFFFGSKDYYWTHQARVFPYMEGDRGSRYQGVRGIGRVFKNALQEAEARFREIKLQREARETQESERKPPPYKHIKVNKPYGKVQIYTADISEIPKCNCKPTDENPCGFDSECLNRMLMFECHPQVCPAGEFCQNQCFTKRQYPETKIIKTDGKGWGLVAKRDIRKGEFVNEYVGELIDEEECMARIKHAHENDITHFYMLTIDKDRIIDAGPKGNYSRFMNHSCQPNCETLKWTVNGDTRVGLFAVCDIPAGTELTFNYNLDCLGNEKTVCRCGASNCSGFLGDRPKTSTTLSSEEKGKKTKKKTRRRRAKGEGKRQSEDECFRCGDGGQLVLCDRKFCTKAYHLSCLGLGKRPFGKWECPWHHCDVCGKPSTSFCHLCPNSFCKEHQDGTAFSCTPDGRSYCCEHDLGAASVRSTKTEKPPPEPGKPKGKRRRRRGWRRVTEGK

[7] = blockers of HIV-1 envelope-mediated cell-cell fusion – cherry-pick, dose response (AID 652057); format: functional, cell-based
[8] = viability loss in CEM21 cells – cell-based, CellTiter-Glo luminescence, cherry-picked, cytotoxicity control for viral fusion inhibitor project, dose response (AID 652042); format: functional;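 further: potency for signal decrease meaning cytotoxicity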
[9] = blockers of HIV-1 ZM109 envelope-driven cell-cell fusion – HeLa effector, CEM target cells, luciferase, cherry-pick, dose response (AID 652058); format: functional, cell-based;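 further: luciferase signal from HIV-1 Env mediated cell-cell fusion of effector and target cells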
[10] = off-target signal loss in HeLa-CEM21 co-culture – HeLa F-luc CTL cells, cherry-picked, counter-screen for HIV-1 Env fusion inhibitor project, dose response (AID 652040); format: functional, cell-based;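 further: potency for signal decrease marking cytotoxic or nonspecific inhibition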
[11] = HIV-1 AD8 envelope cell-cell fusion blockers – cherry-pick, dose response (AID 652062); format: functional, cell-based;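 further: luciferase signal from cell-cell fusion driven by HIV-1 clade B AD8 Env; potency is for inhibitors of fusion seen as a drop in luminescence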
[12] = growth inhibition of yeast DHODH-expressing 3D7 parasites – SYBR Green, dry powder samples, dose response (AID 1159570); format: functional, cell-based;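 further: parasite growth measured after 72 hours of compound exposure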
[13] = P. falciparum Dd2 growth inhibitors, dose response, SYBR Green, cherry-picked samples (AID 1159567); format: functional, cell-based
[14] = Dd2 malaria parasite growth inhibition potency – SYBR Green, dry powder samples, dose response (AID 1159566); format: functional, cell-based;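 further: potency for growth inhibition with lower SYBR green DNA signal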
[15] = growth inhibition of PfATP4-mutant resistant parasites – NITD609-resistant line, SYBR Green, dry powder, dose response (AID 1159571); format: functional, cell-based;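 further: parasites synchronized at ring stage by sorbitol before testing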

SMILES: CCOc1ccc(C(=O)/C=C/c2cc(OC)c(OC)c(OC)c2)cc1
- EC50 (HEK293 [1]): 11500 nM (active)
- IC50 (HEK293 [2]): 5970 nM (active)
- IC50 (HEK293 [3]): 14700 nM (active)
- IC50 (HEK293 [4]): 5020 nM (active)

SMILES: CN1CCN(c2ccc(N)cc2Cl)CC1
- AC50 [5]: 931 nM (active)
- AC50 [6]: > 20000 nM (inactive)

SMILES: C[C@H](CO)N1C[C@H](C)[C@H](CN(C)C(=O)N[C@H](C)c2ccccc2)OCc2ccccc2-c2c(n(C)c3ccccc23)C1=O
- AC50 [7]: 975 nM (active)
- AC50 [8]: 64600 nM (active)
- AC50 [9]: 1620 nM (active)
- AC50 [10]: 1530 nM (active)
- AC50 [11]: 1070 nM (active)

SMILES: C[C@@H]1CN([C@@H](C)CO)C(=O)c2cccc(NC(=O)Nc3ccc4c(c3)OCO4)c2O[C@@H]1CN(C)C(=O)Nc1ccc2c(c1)OCO2
- AC50 [12]: 1520 nM (active)
- AC50 [13]: 1200 nM (active)
- AC50 [14]: 954 nM (active)
- AC50 [15]: 865 nM (active)

- AC50 [5]: 13700 nM (active)
SMILES: Cc1nc(NC(=N)N)nc2ccccc12

Reference: ChEMBL document CHEMBL1201862, “PubChem BioAssay data set” (2004)
